Assay results reported in US6441168B1, “Stable crystalline salts of 5-methyltetrahydrofolic acid” (Eprova AG, priority 1999, dated 2002).
Like-named read-outs stand apart in the source and are kept apart here.

Tests used:
[1] = in air, 25° C., 60% relative humidity
Procedure: The content of 5-methyltetrahydrofolic acid salt which is quoted in the examples was s determined by HPLC in each case and is given as % area. The water content was determined by a Karl Fischer method.
In order to determine the stabilities of the crystalline salts of 5-methyltetrahydrofolic acid, the substances were stored, together with comparison specimens, in air at 25° C. and at 60% relative humidity. The content of 5-methyltetrahydrofolic acid salt remaining was measured at periodic intervals and is given by comparison with the initial value.

SMILES | content of 5-methyltetrahydrofolic acid salt remaining, compared with the initial value ([1]; storage 0 months) [%] | content of 5-methyltetrahydrofolic acid salt remaining, compared with the initial value ([1]; storage 12 months) [%] | content of 5-methyltetrahydrofolic acid salt remaining, compared with the initial value ([1]; storage 3 months) [%] | content of 5-methyltetrahydrofolic acid salt remaining, compared with the initial value ([1]; storage 6 months) [%] | content of 5-methyltetrahydrofolic acid salt remaining, compared with the initial value ([1]; storage 18 months) [%] | content of 5-methyltetrahydrofolic acid salt remaining, compared with the initial value ([1]; storage 88 months) [%] | Solubility at 20° C. in 0.9% NaCl [%] | Solubility at 20° C. in water [%]
CN1c2c([nH]c(N)nc2=O)NC[C@@H]1CNc1ccc(C(=O)N[C@@H](CCC(=O)[O-])C(=O)[O-])cc1.[Ca+2] [Amorphous calcium salt of 5-methyl-(6S)-tetrahydrofolic acid] [reference compound] | 100 | 84.2 |  |  |  |  |  | 
CN1c2c([nH]c(N)nc2=O)NC[C@@H]1CNc1ccc(C(=O)N[C@@H](CCC(=O)[O-])C(=O)[O-])cc1.[Ca+2] [Crystalline calcium salt of 5-methyl-(6S)-tetrahydrofolic ac] [calcium salt of 5-methyl-(6S)-tetrahydrofolic acid] | 100 | 99.1 | 98.6 | 98.7 | 99.0 | 97.8 |  | 
CN1c2c([nH]c(N)nc2=O)NC[C@@H]1CNc1ccc(C(=O)N[C@@H](CCC(=O)[O-])C(=O)[O-])cc1.[Ca+2] [Type I, calcium salt of 5-methyl-(6S)-tetrahydrofolic acid] |  |  |  |  |  |  | 1.6 | 1.1
CN1c2c([nH]c(N)nc2=O)NC[C@@H]1CNc1ccc(C(=O)N[C@@H](CCC(=O)[O-])C(=O)[O-])cc1.[Ca+2] [Type II, calcium salt of 5-methyl-(6S)-tetrahydrofolic acid] |  |  |  |  |  |  | 5.8 | 3.8
CN1c2c([nH]c(N)nc2=O)NC[C@@H]1CNc1ccc(C(=O)N[C@@H](CCC(=O)[O-])C(=O)[O-])cc1.[Ca+2] [Type III, calcium salt of 5-methyl-(6S)-tetrahydrofolic acid] |  |  |  |  |  |  | 1.5 | 1.0
